Consider three compounds from article PMC8300810, “Antibacterial Residue Excretion via Urine as an Indicator for Therapeutical Treatment Choice and Farm Waste Treatment” (Antibiotics, 2021).

A short description of series [1]: Antimicrobial excretion in urine of treated pigs through the withdrawal period, LC-MS/MS. The protocol:
Each of these compounds was administered via intramuscular (IM) injection.
A total of 66 previously untreated piglets were procured at treatment onset. Starting at 40 days before administration of the compounds, they were kept on the premises of the Faculty of Veterinary Sciences at the University of Zaragoza (Zaragoza, Spain) and used in tandem for another study. […] From them, 39 were female and 27, male. During acclimatization and withdrawal periods, the piglets were fed ad libitum with a special mixed feed free of antibiotics (ARS Alendi S.A., Huesca, Spain), and water was provided from a separate, controlled water circuit. Piglets were raised in separate pens depending on the antibiotic with which they were administrated.
Urine was collected on different days within the withdrawal period determined by the respective antimicrobial drug manufacturers. It was collected from live pigs via mobilization of the animal and bladder stimulation. At pre-set time intervals, pigs were slaughtered and urine was obtained via bladder puncture; at the same time, urine was gathered from living animals subjected to the same treatment and withdrawal period. Consequently, urine was collected from 1 to 9 pigs on each day of analysis. As animals were bred in batches and slaughtered all along the withdrawal period, the number of sampled animals decreased as the withdrawal period progressed. Samples were kept aliquoted and frozen at −20 °C until analysis.
1.5 mL of urine were spiked with 100 µL of IS spiking solution. 100 µL 0.1M EDTA and 5 mL of purified water were added and mixed. 500 µL were taken and further diluted with 1500 µL of purified water. It was filtered through 0.2 µm directly into HPLC vials.
All urine samples were analysed using a SCIEX Exion LC coupled to a TripleQuad 6500+ triple quadrupole detector equipped with an Acquity UPLC® BEH C18 column (1.7 µm, 2.1 × 100 mm). The mobile phase consisted of eluent A (0.1% formic acid in water) and eluent B (0.1% formic acid in acetonitrile) at a flow rate of 0.4 mL min^−1. […] The injected volume was 5 µL. Positive electrospray ionisation was used, and analytes were detected in MRM mode by monitoring 2 transitions for each compound of interest (Table 3). Regardless of the compound analysed, the technique’s limit of detection (LoD) was 10 ppb.
For each day of the withdrawal period pre-set in this study to evaluate the behaviour of antimicrobials, 1 to 9 samples of urine coming from different animals subjected to the same treatment and withdrawal period were analysed via LC-MS/MS.
The rates of elimination (λz) of antibiotics from urine were determined via regression analysis. The corresponding half-lives of elimination(T1/2) were calculated according to the following equation:
Equation (1): Half-life of elimination where T1/2 is the half-life of elimination and λZ is the rate of elimination. (1) T1/2=Ln (2)/λz

For series [2] the following is noted: cited from earlier work.
Series [3] is described as follows: Concentration in urine compared with muscle of treated pigs. The conditions noted are these: Figure 4. It counts as in vivo. From the text:
Urine samples were obtained in parallel with muscle and blood samples gathered for the study performed by Serrano et al.. That study’s aim was to find a suitable matrix for ante mortem tests for the detection of antimicrobial compounds, which would avoid the slaughter of contaminated animals and thus the entrance of antimicrobial compounds into the food chain. The matrix should be characterized via an easy extraction procedure from living animals and a good correlation with the concentration found in muscle. […] These findings agree with those described previously by Seymour et al. for cows: urine samples from treated cows tested positive for the presence of antimicrobial residues even after the end of the withdrawal period set by the manufacturer. Moreover, this issue could also be interpreted as the occurrence of higher levels of antimicrobials in urine compared to other tissues such as muscle.
With the exception of sulfamethoxypyrydazine, concentrations described in urine were much higher than the ones described for muscle.

[4] abbreviates: both, Landrace × Large White, pig, in vivo.

Turning to `COc1ccc(NS(=O)(=O)c2ccc(N)cc2)nn1` [Sulfamethoxypyridazine], the total urine elimination result in series [1] (setting [4]) is listed as “ca. 1 weeks”.
For orientation: half-life means the time needed for the level to fall by half in the phase considered. `CN(C)[C@@H]1C(O)=C(C(N)=O)C(=O)[C@@]2(O)C(O)=C3C(=O)c4c(O)cccc4[C@@](C)(O)[C@H]3[C@H](O)[C@@H]12` [Oxytetracycline]: in series [1] (setting [4]), the “elimination period in urine” value is “over 2 months”. For the same compound, the half-life in series [1] (both, Landrace × Large White, pig, urine, im) was 100 h. Also, in series [1] (pig, in vivo), the “concentration in urine at the beginning of the withdrawal period (comparison among compounds)” value was “highest concentrations” and the “time period required to complete the excretion by urine (in words)” value is recorded as “more than two months”. In series [2], the “fraction of administered antibiotic eliminated in the faeces” value is on record as 40% and the “fraction of administered antibiotic excreted in urine via glomerular filtration” value is listed as 60%. Also, the “concentrations in urine compared to muscle” value in series [3] was “much higher”.
Consider `CCN1CCN(c2cc3c(cc2F)c(=O)c(C(=O)O)cn3C2CC2)CC1` [Enrofloxacin], for which the total urine elimination entry in series [1] (setting [4]) is on record as “ca. 3 weeks”. In series [1] (urine, pigs, estimated from the regression), the “time period required to complete the excretion by urine (in words)” value is “almost three weeks”. Moreover, the “concentrations in urine compared to muscle” value in series [3] was “much higher”.
